Experiment: molar heat capacity at saturation pressure
Conditions: Liquid, Vacuum adiabatic calorimetry

CCCCCCCCCC(=O)OCC [ethyl decanoate]
Conditions	molar heat capacity [J/K/mol]
269.31 K	391
270.48 K	391.6
271.01 K	391.6
271.84 K	391.9
272.46 K	392.3
273.19 K	392.4
274.38 K	392.9
274.44 K	393
275.37 K	393.2
276.42 K	393.8
276.91 K	394
277.55 K	394.1
278.4 K	394.5
279.45 K	394.9
279.73 K	394.9
280.38 K	395.3
281.91 K	396
281.98 K	396.1
282.36 K	396.2
284.09 K	396.8
284.34 K	397.1
284.52 K	397.2
286.27 K	397.8
286.32 K	397.8
287.05 K	398.3
288.3 K	398.7
288.45 K	398.8
289.59 K	399.4
290.28 K	399.7
290.63 K	399.9
292.13 K	400.5
292.26 K	400.7
292.81 K	401
294.23 K	401.6
294.66 K	401.8
294.99 K	401.9
296.21 K	402.5
297.17 K	403.1
297.19 K	403
298.19 K	403.4
299.72 K	404.3
300.16 K	404.4
302.14 K	405.5
302.25 K	405.6
304.12 K	406.5
304.78 K	406.9
306.09 K	407.7
307.31 K	408.3
308.07 K	408.7
309.83 K	409.6
310.05 K	409.6
312.02 K	410.7
312.36 K	411
314 K	411.8
314.88 K	412.3
315.98 K	412.8
317.41 K	413.8
317.96 K	414
319.93 K	415
319.94 K	415
321.92 K	416.3
322.45 K	416.4
323.9 K	417.2
324.96 K	417.7
325.88 K	418.2
327.48 K	419.3
327.86 K	419.2
329.84 K	420.3
330 K	420.6
331.82 K	421.5
332.51 K	422
333.8 K	422.7
335.02 K	423.5
335.78 K	424
337.54 K	424.9
337.76 K	425.1
339.74 K	426.2
340.05 K	426.4
341.72 K	427.3
342.56 K	428
343.7 K	428.7
345.06 K	429.5
345.68 K	429.8
347.57 K	430.9
347.66 K	431
349.64 K	432.2
350.07 K	432.4
351.62 K	433.3
352.57 K	433.9
353.61 K	434.3
355.06 K	435.2
355.59 K	435.6
357.56 K	436.8
357.57 K	436.8
359.55 K	438
360.05 K	438.2
362.54 K	439.8
365.03 K	441.4
367.52 K	443

— the NIST ThermoML archive (doi:10.1021/je900093h)
